Source: ChEMBL document CHEMBL1201862, “PubChem BioAssay data set” (2004)
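Dose response: 5 concentrations. Exposure: 48 h. Format: 96-well plates. Endpoint: linear interpolation; highest concentration if not reached. At the GI50, growth is halved.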 The source made the active and inactive calls. No stated cut-off is given here; in the data, active = GI50 up to about 1.1 µM and inactive = higher.

Experiments:
Experiment in all cases: NCI-60 cell line screen, 48 h
[1] = tested on: ACHN
[2] = tested on: SN12C
[3] = tested on: PC-3
[4] = tested on: Hs-578T
[5] = tested on: UACC-62
[6] = tested on: A498
[7] = tested on: SNB-19
[8] = tested on: COLO 205
[9] = tested on: A549
[10] = tested on: U-251
[11] = tested on: M14
[12] = tested on: HCT-15
[13] = tested on: DU-145
[14] = tested on: SK-OV-3
[15] = tested on: SW-620
[16] = tested on: HCC 2998
[17] = tested on: MDA-MB-435
[18] = tested on: OVCAR-3
[19] = tested on: SF-268
[20] = tested on: SK-MEL-2
[21] = tested on: NCI-H23
[22] = tested on: NCI-H226
[23] = tested on: MDA-MB-231
[24] = tested on: T47D
[25] = tested on: OVCAR-8
[26] = tested on: SF-295
[27] = tested on: RPMI-8226
[28] = tested on: HOP-62
[29] = tested on: NCI-H460
[30] = tested on: HL-60
[31] = tested on: MDA-N
[32] = tested on: OVCAR-5
[33] = tested on: EKVX
[34] = tested on: CCRF-CEM
[35] = tested on: K562
[36] = tested on: HCT-116
[37] = tested on: SK-MEL-5
[38] = tested on: OVCAR-4
[39] = tested on: TK-10
[40] = tested on: UACC-257
[41] = tested on: IGROV-1
[42] = tested on: NCI-H522
[43] = tested on: MCF7
[44] = tested on: HT-29
[45] = tested on: NCI/ADR-RES
[46] = tested on: 786-0
[47] = tested on: SK-MEL-28
[48] = tested on: Malme-3M
[49] = tested on: UO-31
[50] = tested on: MOLT-4
[51] = tested on: KM12
[52] = tested on: LOX IMVI
[53] = tested on: RXF 393
[54] = tested on: BT-549
[55] = tested on: HOP-92
[56] = tested on: CAKI-1
[57] = tested on: SNB-75
[58] = tested on: SF-539

Measured: GI50

C[N+](C)(C)C1=NNC2=Nc3ccccc3SC2=C1
17.5 µM: [12]
inactive: [1] 16 µM | [2] 21.9 µM | [3] 15.1 µM | [4] 30 µM | [5] 17 µM | [6] 26.4 µM | [7] 26.5 µM | [8] 15 µM | [9] 23.9 µM | [10] 18.6 µM | [11] 15.7 µM | [13] 27.6 µM | [14] 23.6 µM | [15] 24.4 µM | [16] 24.4 µM | [17] 22.2 µM | [18] 19.3 µM | [19] 35 µM | [20] 14.1 µM | [21] 28.9 µM | [22] 11.8 µM | [23] 14.6 µM | [24] 4.11 µM | [25] 18.4 µM | [26] 9.42 µM | [27] 12.9 µM | [28] 22.8 µM | [29] 19 µM | [30] 54.1 µM | [31] 17.8 µM | [32] 17.7 µM | [33] 4.92 µM | [34] 11.7 µM | [35] 17.9 µM | [36] 13.9 µM | [37] 15.1 µM | [38] 19.7 µM | [39] 37.1 µM | [40] 23 µM | [41] 17 µM | [42] 15.9 µM | [43] 18.6 µM | [44] 13.5 µM | [45] 16.1 µM | [46] 20.1 µM | [47] 19.4 µM | [48] 19.8 µM | [49] 15 µM | [50] 13 µM | [51] 23.9 µM | [52] 18.8 µM | [53] 20.4 µM | [54] 28.6 µM | [55] 12.1 µM | [56] 32.3 µM

COC(=O)C1=C(C(=O)OC)C2(c3ccccc3)c3ccccc3C(=O)C1N2C1CCCCC1 (centres undefined)
48.2 µM: [12]
inactive: [1] 29.2 µM | [2] 49.5 µM | [3] 10.6 µM | [4] 40.9 µM | [5] 61.8 µM | [6] > 66.1 µM | [57] > 66.8 µM | [7] > 63.4 µM | [8] 16.8 µM | [9] 17.7 µM | [10] 49.9 µM | [11] 43.3 µM | [13] > 100 µM | [14] > 96.2 µM | [15] 41.3 µM | [16] 23.2 µM | [17] 86.7 µM | [18] 72.6 µM | [19] 88.7 µM | [20] > 61.9 µM | [21] > 52.5 µM | [58] 69.3 µM | [22] 50.4 µM | [23] > 32.4 µM | [24] > 100 µM | [25] 60.4 µM | [26] 25.5 µM | [27] 6.9 µM | [28] > 68.9 µM | [29] 24.5 µM | [30] 3.1 µM | [31] > 65 µM | [32] 54.8 µM | [33] 55.6 µM | [34] 26.7 µM | [35] 3.42 µM | [36] 14.7 µM | [37] 26.2 µM | [38] 58.2 µM | [39] 31.3 µM | [40] 11.9 µM | [41] 49.4 µM | [42] 34.6 µM | [43] 37.7 µM | [44] 42.1 µM | [45] > 82 µM | [46] 47.4 µM | [47] > 62.1 µM | [48] 58.2 µM | [49] 13 µM | [50] 6.61 µM | [51] 17.8 µM | [52] 22 µM | [53] 33.7 µM | [54] > 100 µM | [55] > 100 µM | [56] 49.1 µM
